Assay results from ChEMBL document CHEMBL1201862, “PubChem BioAssay data set” (2004).
Activity calls are given as the source filed them.

Tests used:
[1] = biological target: T1, DNA repair and recombination protein RAD54-like (Homo sapiens, UniProt Q92698); assay: inhibitors of human RAD54 branch migration, confirmation, biochemical, fluorescence, cherry-picked samples, dose series (AID 651657); format: functional
T1 sequence (Q92698 whole entry): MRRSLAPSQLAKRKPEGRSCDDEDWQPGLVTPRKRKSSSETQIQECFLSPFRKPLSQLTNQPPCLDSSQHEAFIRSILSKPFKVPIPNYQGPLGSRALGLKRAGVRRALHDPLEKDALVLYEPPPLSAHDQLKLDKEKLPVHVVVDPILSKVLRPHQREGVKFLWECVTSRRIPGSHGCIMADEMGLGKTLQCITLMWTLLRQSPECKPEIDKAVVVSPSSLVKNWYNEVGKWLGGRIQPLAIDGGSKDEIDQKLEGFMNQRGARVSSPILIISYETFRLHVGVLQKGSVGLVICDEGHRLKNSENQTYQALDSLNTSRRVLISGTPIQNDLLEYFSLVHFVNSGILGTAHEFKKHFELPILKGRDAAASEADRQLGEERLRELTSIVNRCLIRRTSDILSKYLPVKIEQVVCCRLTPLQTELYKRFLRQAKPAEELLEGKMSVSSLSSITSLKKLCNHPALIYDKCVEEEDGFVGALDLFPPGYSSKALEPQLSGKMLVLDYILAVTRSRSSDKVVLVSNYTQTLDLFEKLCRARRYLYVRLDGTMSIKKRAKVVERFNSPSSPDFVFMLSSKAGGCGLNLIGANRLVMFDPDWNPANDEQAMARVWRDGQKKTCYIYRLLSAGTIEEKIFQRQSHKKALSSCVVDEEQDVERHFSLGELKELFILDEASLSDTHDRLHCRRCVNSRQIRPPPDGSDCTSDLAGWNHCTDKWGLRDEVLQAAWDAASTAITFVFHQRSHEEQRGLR

[2] = biological target: Endoplasmic reticulum aminopeptidase 1 (Homo sapiens, UniProt Q9NZ08); assay: ERAP1 aminopeptidase inhibitors, dose response, biochemical, cherry-pick, set 2, plate reader (AID 743314)
Major prion protein = Major prion protein (Homo sapiens, UniProt P04156); format: functional, cell-based
[3] = P. falciparum 3D7-ScDHODH growth inhibitors, dose response, SYBR Green, dry powder samples (AID 1159570); format: functional, cell-based;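 further: parasite growth measured after 72 hours of compound exposure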
[4] = HepG2 cell cytotoxicity, dose response, cytotoxicity control, plate reader, dry powder samples (AID 1159569); format: functional, cell-based;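 further: inhibitor potency with signal falling toward the positive control level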
[5] = P. falciparum Dd2 growth inhibitors, dose response, SYBR Green, cherry-picked samples (AID 1159567); format: functional, cell-based
[6] = P. falciparum Dd2 growth inhibitors, dose response, SYBR Green, dry powder samples (AID 1159566); format: functional, cell-based;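 further: potency for growth inhibition with lower SYBR green DNA signal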
[7] = HepG2 cell cytotoxicity, dose response, cytotoxicity control, cherry-picked samples (AID 1159577); format: functional, cell-based
[8] = P. falciparum ATP4 D1247Y mutant growth inhibitors, dose response, NITD609-resistant line, SYBR Green, dry powder (AID 1159571); format: functional, cell-based;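 further: parasites synchronized at ring stage by sorbitol before testing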
[9] = system: Streptococcus sp. 'group A'; assay: growth inhibition of control SK(-) GAS strain, dose response, counter-screen for streptokinase expression inhibitor project, luminescence, kanamycin, BacTiterGlo, confirmation (AID 1900); format: functional, organism-based
BJ [10] = assay: cytotoxicity toward BJ-TERT fibroblasts, dose response, cell-based, RAS-independent, luminescence (AID 1933); format: functional; conditions: Homo sapiens
Streptokinase A = biological target: T2, Streptokinase A (Streptococcus pyogenes serotype M1, UniProt P10520); assay: S. pyogenes streptokinase expression inhibitors, potency, dose response, plasminogen activation absorbance, OD405 (AID 1914); format: functional, Streptococcus pyogenes M1 GAS;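 further: secreted streptokinase activity via plasminogen activation per viability signal from cell pellet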
T2 sequence (P10520 whole entry): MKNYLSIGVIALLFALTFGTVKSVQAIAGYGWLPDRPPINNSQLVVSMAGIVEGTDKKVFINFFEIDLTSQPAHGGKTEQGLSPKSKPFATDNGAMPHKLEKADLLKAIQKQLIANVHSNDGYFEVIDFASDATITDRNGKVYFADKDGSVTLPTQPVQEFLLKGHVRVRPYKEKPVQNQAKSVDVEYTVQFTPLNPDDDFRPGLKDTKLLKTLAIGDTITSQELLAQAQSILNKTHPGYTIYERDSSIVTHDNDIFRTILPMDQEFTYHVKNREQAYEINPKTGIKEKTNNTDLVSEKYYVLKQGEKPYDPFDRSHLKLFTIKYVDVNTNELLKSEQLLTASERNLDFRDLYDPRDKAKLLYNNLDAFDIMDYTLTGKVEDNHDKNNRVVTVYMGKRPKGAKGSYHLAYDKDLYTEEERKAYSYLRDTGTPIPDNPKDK

BJ [11] = assay: cells; format: functional, cell-based; conditions: Homo sapiens
BJ [12] = assay: cytotoxicity toward BJ-TERT-LT-ST fibroblasts, dose response, cell-based, RAS-independent, luminescence (AID 1935); format: functional; conditions: Homo sapiens;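 further: BJ fibroblasts immortalized with TERT plus LT and ST oncogenes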
[13] = cytotoxicity toward DRD oncogenic fibroblasts, dose response, cell-based, non-viral oncogenic, luminescence (AID 1934); format: functional; conditions: Homo sapiens
Streptococcus = assay: Group A Streptococcus viability loss, dose response, counter-screen for streptokinase expression inhibitor project, luminescence, BacTiterGlo (AID 1915); format: functional, organism-based;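 further: potency for reduction of bacterial viability or growth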
[14] = cytotoxicity in HEK-293T cells, dose response, cytotoxicity control for BCR NF-kB inhibitor project, luminescence, B-cell screen hits (AID 489021); format: functional, cell-based;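 further: HEK-293T cells carrying an NF-kB luciferase reporter; cells exposed to compound for about 14 hours before viability readout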
INS1 = assay: beta cell apoptosis inhibitors, cytokine rescue, dose response, luminescence, retest (AID 449756); format: functional, cell-based; conditions: Rattus norvegicus;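 further: cell death triggered by IL-1 beta plus TNF-alpha plus IFN-gamma mixture; protective hits raise ATP signal compared with cytokine alone wells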
[15] = Shn3 3'UTR reporter inhibitors, dose response, cell-based, Clone20 osteoblasts, firefly luciferase, cherry-picked (AID 624132); format: functional;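 further: firefly luciferase luminescence from reporter carrying the Shn3 3'UTR in osteoblasts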
[16] = HepG2 cell cytotoxicity, dose response, cytotoxicity control for Shn3 inhibitor project, CellTiter-Glo, cherry-picked (AID 624134); format: functional, cell-based
[17] = control 3'UTR Renilla luciferase suppression, dose response, counter-screen for Shn3 inhibitor project, cell-based, Clone20-Shn3RL, cherry-picked (AID 624133); format: functional
[18] = miR-122 activators in hepatoma reporter cells, dose response, cell-based, Huh7 psiCHECK-miR122, Renilla luciferase, cherry-picked (AID 651956); format: functional;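 further: huh7 hepatoma cells stably carrying a psiCHECK-2 miR-122 sensor plasmid; renilla luciferase signal reporting endogenous miR-122 activity after 48 h compound exposure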
[19] = inhibitors of PGC1a acetylation in cells, dose response, cell-based, cherry-picked samples (AID 720514); format: functional;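 further: potency may reflect raised or lowered acetylation signal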
[20] = HEK293T cytotoxicity, dose response, cytotoxicity control for miR-122 modulator project, cell-based, inhibitor set, cherry-pick, set 2 (AID 720697); format: functional
[21] = HEK293T cytotoxicity, dose response, cytotoxicity control for miR-122 modulator project, cell-based, activator set, cherry-pick (AID 720690); format: functional;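 further: HEK293T human cells scored for general mammalian cytotoxicity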

In the case of CN1CCCC1CCNc1ccc2c(=O)c3ccccc3oc2c1 (stereo not drawn), the AC50 [1] is reported as 21.1 µM (active) and the AC50 [2] is reported as 4.52 µM (active).
With CCOC(=O)C(CC)Sc1cc(C)nc2ccc(OC)cc12 (stereo not drawn) the IC50 (Major prion protein) was 5.29 µM (active) and the IC50 (cells) was > 138 µM (inactive).
With Cc1nc(N2[C@H](CO)[C@H](c3ccccc3)[C@H]2CNCC2CCCCC2)sc1C the AC50 [3] was 1.03 µM (active), the AC50 [4] was 71.2 µM (active) and the AC50 [5] was 1.13 µM (active). The AC50 [6] was 0.595 µM (active), the AC50 [7] was > 42 µM (inactive) and the AC50 [8] was 0.691 µM (active).
With COc1cccc(N2CCN(c3[nH]cnc4c5cc(F)ccc5nc3-4)CC2C)c1 (stereo not drawn) the EC50 [9] was 8 µM (active), the EC50 (BJ [10]) was 6.14 µM (inconclusive) and the EC50 (Streptokinase A) was 15.3 µM (active). The EC50 (BJ [11]) was 9.04 µM (active), the EC50 (BJ [12]) was 8.16 µM (active) and the EC50 [13] was 6.44 µM (active). The EC50 (Streptococcus) was 48.4 µM (active), the IC50 [14] was 1.83 µM (active) and the AC50 (INS1) was 2.25 µM (active). For the same compound, the AC50 [15] was 1.31 µM (active), the AC50 [16] was 9.99 µM (active) and the AC50 [17] was 0.49 µM (active). The AC50 [18] was 6.99 µM (active), the AC50 [19] was 6.56 µM (active) and the AC50 [20] was 3.06 µM (active). For the same compound, the AC50 [21] was 3.35 µM (active).
In the case of COc1cccc(NC(=O)N[C@H]2CC[C@H](CC(=O)Nc3ccc(-c4ccccc4)cc3)O[C@@H]2CO)c1, the AC50 [20] is reported as 0.479 µM (active) and the AC50 [21] is reported as 44.3 µM (active).
